Assay results as given in article PMC5047949, “Kinetic analysis of the translocator protein positron emission tomography ligand [^18F]GE-180 in the human brain” (European Journal of Nuclear Medicine and Molecular Imaging, 2016).

Key:
[1] = system: translocator protein (TSPO); assay: Dynamic [^18F]GE-180 brain PET with arterial input; 1TC, 2TC and Logan kinetic modelling; assay type: in vivo, human; settings: for Distribution volume ratio: cortical grey matter pseudoreference, median (IQR); for K1 / VT / k2 / k3 / k4: median (interquartile range)
Procedure: PET studies were performed on a Biograph 6 (six-slice CT) scanner after administration of 182 ± 3.1 MBq via intravenous bolus injection over 10 s followed by a 10-mL saline flush. A low-dose CT scan preceded the PET acquisition to allow correction for tissue attenuation. Emission data were then acquired over 90 min in list mode and reconstructed as 24 temporal frames (6 × 15, 3 × 60, 5 × 120, 5 × 300, 5 × 600 s) using filtered back-projection (matrix size 168 × 168, zoom 2.6, 5-mm gaussian filter, pixel size 1.56 × 1.56, slice thickness 3 mm) with and without attenuation correction. Standard corrections for scatter, decay and random counts were applied.
We used the PET data analysis and kinetic modelling toolkit, MIAKAT™ (www.miakat.org), which incorporates software from SPM5 (Wellcome Trust Centre for Neuroimaging) and FSL (FMRIB, University of Oxford). The brain was initially extracted from the T1-weighted MR images. The CIC neuroanatomical atlas was nonlinearly registered to the individual’s extracted brain in order to generate a personalized set of anatomically parcellated regions. Frame-by-frame motion correction of the dynamic (without attenuation correction) PET data was performed using mutual information coregistration of the individual frames to a reference frame. An average motion-corrected PET image was generated and used for coregistration with the T1-weighted MR image. Finally, regional tissue time–activity curves (TACs) were generated for each region of interest (ROI) defined from the CIC atlas that had been transformed into each individual’s image space.
Datasets were analysed with a one-tissue compartment (1TC) model and a two-tissue compartment (2TC) model and the Logan graphical method, using the metabolite-corrected plasma input function as previously described with a fixed 5 % blood volume correction. The primary outcome measures were the radioligand delivery rate constant (K1; mL cm^−3 min^−1), total distribution volume (VT: mL cm^−3), and standardized uptake values (SUV). The SUV ratio (SUVR) and distribution volume ratio (DVR) were estimated using the cortical grey matter as a pseudo reference region.
To investigate the stability of VT over different scan durations, a time stability analysis was performed by analysing data for total time windows that ranged between 40 and 90 min in 10-min increments.

[2] = Arterial whole-blood and plasma activity, and parent fraction by HPLC; assay type: in vivo, human
Procedure: Arterial blood activity was measured every second for the first 15 min of the 90-min scan using an automated blood sampling system (ABSS Allog, Mariefred, Sweden) connected to the subject via a 1.5 m × 1.0 mm diameter polytetrafluoroethylene line (blood withdrawal rate 2.5 ml/min). In addition, blood samples (10 mL) were collected manually from the radial artery at 0, 5, 10, 15, 30, 50, 70 and 90 min to assay whole-blood and plasma activity. Plasma was obtained by centrifugation for 3 min at 1,800 g. Activity in whole blood and plasma was measured in a CAPRAC-t well counter over 10 – 60 s. The first 15 min of continuous whole-blood activity was combined with the activity from discrete samples to generate the whole-blood activity curve for use in data modelling. The continuous plasma-to-blood ratio was estimated using a constant model and a total plasma activity curve was obtained by correcting the whole-blood curve for this partition between plasma and blood.
The parent fraction of [^18F]GE-180 was measured by high-performance liquid chromatography (Agilent 1,100 and 1,260 series) of discrete plasma samples (3.5 mL). The parent fraction was fitted to a single exponential plus a constant model. The total plasma activity was multiplied by this parent fraction and then smoothed post peak by fitting to a triexponential function to generate an arterial parent plasma input function. A delay correction of up to +30 s was applied to the input function prior to fitting the kinetic modelling. This was performed to account for delay in the 1.5-m tube (28.3 s) and delay between the radial artery and the brain.

[3] = Safety and tolerability after radioligand administration; assay type: in vivo, human
Text: With regard to correlations between age and the principal outcome measure, there were no significant correlations between age and VT in either HABs and MABs in any of the ROIs studied (Spearman’s rho = −0.3 – 0.7 p = 0.188 – 0.873 in HABs; Spearman’s rho = 0.1 – 0.8, p = 0.104 – 0.94 in MABs). There were also no significant relationships between age and outcome measures when added as a covariate in the repeated measures ANOVA. Demographic data are provided in Supplementary Table 1.

[4] = pH 7.4; preclinical work; cited from earlier work
[5] = humans; in vitro work, not measured in this study; cited from earlier work
[6] = set-up: method as in PMID 26072270; settings: 60 min; earlier preclinical work; cited from earlier work
[7] = 2TC-fix model, across all regions and subjects
[8] = Logan graphical method, Cerebellum
[9] = Logan graphical method, Frontal lobe
[10] = Logan graphical method, Occipital lobe
[11] = Logan graphical method, Parietal lobe
[12] = Logan graphical method, Striatum
[13] = Logan graphical method, Temporal lobe
[14] = Logan graphical method, Thalamus

SMILES: CCN(CC)C(=O)[C@H]1CCCc2c1c1c(OC)cccc1n2CC[18F] [[^18F]GE-180]
- Distribution volume ratio ([1]; 1TC model, Cerebellum): 0.968 (0.91 – 1)
- K1 ([1]; 1TC model, Cerebellum): 0.00656 (0.0054 – 0.0076) mL/min
- VT ([1]; 1TC model, Cerebellum): 0.178 (0.16 – 0.22) mL/cm^3
- k2 ([1]; 1TC model, Cerebellum): 0.0339 (0.034 – 0.034) /min
- Distribution volume ratio ([1]; 1TC model, Frontal lobe): 0.939 (0.94 – 0.95)
- K1 ([1]; 1TC model, Frontal lobe): 0.00472 (0.0041 – 0.006) mL/min
- VT ([1]; 1TC model, Frontal lobe): 0.171 (0.15 – 0.22) mL/cm^3
- k2 ([1]; 1TC model, Frontal lobe): 0.0271 (0.023 – 0.028) /min
- Distribution volume ratio ([1]; 1TC model, Occipital lobe): 1.12 (1.1 – 1.2)
- K1 ([1]; 1TC model, Occipital lobe): 0.00621 (0.0057 – 0.0074) mL/min
- VT ([1]; 1TC model, Occipital lobe): 0.214 (0.19 – 0.25) mL/cm^3
- k2 ([1]; 1TC model, Occipital lobe): 0.03 (0.025 – 0.032) /min
- Distribution volume ratio ([1]; 1TC model, Parietal lobe): 0.969 (0.96 – 1)
- K1 ([1]; 1TC model, Parietal lobe): 0.00513 (0.004 – 0.0061) mL/min
- VT ([1]; 1TC model, Parietal lobe): 0.19 (0.16 – 0.22) mL/cm^3
- k2 ([1]; 1TC model, Parietal lobe): 0.027 (0.024 – 0.028) /min
- Distribution volume ratio ([1]; 1TC model, Striatum): 0.826 (0.78 – 0.89)
- K1 ([1]; 1TC model, Striatum): 0.00358 (0.003 – 0.0046) mL/min
- VT ([1]; 1TC model, Striatum): 0.155 (0.14 – 0.2) mL/cm^3
- k2 ([1]; 1TC model, Striatum): 0.0241 (0.021 – 0.025) /min
- K1 ([1]; 1TC model, Temporal lobe): 0.00514 (0.0048 – 0.006) mL/min
- VT ([1]; 1TC model, Temporal lobe): 0.182 (0.17 – 0.24) mL/cm^3
- k2 ([1]; 1TC model, Temporal lobe): 0.0266 (0.025 – 0.028) /min
- Distribution volume ratio ([1]; 1TC model, Thalamus): 1.03 (0.96 – 1.1)
- K1 ([1]; 1TC model, Thalamus): 0.00555 (0.0046 – 0.0058) mL/min
- VT ([1]; 1TC model, Thalamus): 0.182 (0.17 – 0.24) mL/cm^3
- k2 ([1]; 1TC model, Thalamus): 0.0261 (0.024 – 0.028) /min
- Distribution volume ratio ([1]; 2TC model, Cerebellum): 0.916 (0.69 – 0.98)
- K1 ([1]; 2TC model, Cerebellum): 0.0224 (0.016 – 1.3) mL/min
- VT ([1]; 2TC model, Cerebellum): 0.281 (0.25 – 0.33) mL/cm^3
- k2 ([1]; 2TC model, Cerebellum): 0.319 (0.23 – 78) /min
- k3 ([1]; 2TC model, Cerebellum): 0.0331 (0.029 – 0.091) /min
- k4 ([1]; 2TC model, Cerebellum): 0.0113 (0.0084 – 0.018) /min
- Distribution volume ratio ([1]; 2TC model, Frontal lobe): 0.984 (0.96 – 1.2)
- K1 ([1]; 2TC model, Frontal lobe): 0.0102 (0.0089 – 0.013) mL/min
- VT ([1]; 2TC model, Frontal lobe): 0.346 (0.26 – 0.5) mL/cm^3
- k2 ([1]; 2TC model, Frontal lobe): 0.195 (0.15 – 1.6) /min
- k3 ([1]; 2TC model, Frontal lobe): 0.0301 (0.024 – 0.15) /min
- k4 ([1]; 2TC model, Frontal lobe): 0.00653 (0.004 – 0.017) /min
- Distribution volume ratio ([1]; 2TC model, Occipital lobe): 1.07 (0.97 – 1.1)
- K1 ([1]; 2TC model, Occipital lobe): 0.0238 (0.019 – 0.031) mL/min
- VT ([1]; 2TC model, Occipital lobe): 0.35 (0.3 – 0.52) mL/cm^3
- k2 ([1]; 2TC model, Occipital lobe): 0.385 (0.2 – 0.62) /min
- k3 ([1]; 2TC model, Occipital lobe): 0.0395 (0.036 – 0.054) /min
- k4 ([1]; 2TC model, Occipital lobe): 0.0101 (0.0062 – 0.014) /min
- Distribution volume ratio ([1]; 2TC model, Parietal lobe): 1.01 (0.98 – 1.1)
- K1 ([1]; 2TC model, Parietal lobe): 0.0116 (0.011 – 0.014) mL/min
- VT ([1]; 2TC model, Parietal lobe): 0.33 (0.31 – 0.42) mL/cm^3
- k2 ([1]; 2TC model, Parietal lobe): 0.192 (0.15 – 0.25) /min
- k3 ([1]; 2TC model, Parietal lobe): 0.0334 (0.025 – 0.039) /min
- k4 ([1]; 2TC model, Parietal lobe): 0.00873 (0.0045 – 0.014) /min
- Distribution volume ratio ([1]; 2TC model, Striatum): 0.451 (0.41 – 0.71)
- K1 ([1]; 2TC model, Striatum): 0.00413 (0.0033 – 0.0088) mL/min
- VT ([1]; 2TC model, Striatum): 0.155 (0.14 – 0.22) mL/cm^3
- k2 ([1]; 2TC model, Striatum): 1.14 (0.66 – 1.7) /min
- k3 ([1]; 2TC model, Striatum): 4.89 (0.62 – 9.1) /min
- k4 ([1]; 2TC model, Striatum): 0.14 (0.027 – 0.21) /min
- Distribution volume ratio ([1]; 2TC model, Temporal lobe): 0.958 (0.93 – 1)
- K1 ([1]; 2TC model, Temporal lobe): 0.0143 (0.012 – 0.032) mL/min
- VT ([1]; 2TC model, Temporal lobe): 0.306 (0.27 – 0.42) mL/cm^3
- k2 ([1]; 2TC model, Temporal lobe): 0.217 (0.16 – 1.3) /min
- k3 ([1]; 2TC model, Temporal lobe): 0.0348 (0.03 – 0.15) /min
- k4 ([1]; 2TC model, Temporal lobe): 0.00927 (0.0063 – 0.016) /min
- Distribution volume ratio ([1]; 2TC model, Thalamus): 0.922 (0.81 – 1.1)
- K1 ([1]; 2TC model, Thalamus): 0.0118 (0.011 – 0.014) mL/min
- VT ([1]; 2TC model, Thalamus): 0.376 (0.28 – 0.41) mL/cm^3
- k2 ([1]; 2TC model, Thalamus): 0.16 (0.14 – 0.2) /min
- k3 ([1]; 2TC model, Thalamus): 0.0315 (0.026 – 0.042) /min
- k4 ([1]; 2TC model, Thalamus): 0.00881 (0.0062 – 0.012) /min
- average regional delivery rate constant (K1) ([1]; 2TC model, healthy subjects): 0.01 mL cm^−3 min^−1
- K1, average [1, 7]: 0.013 mL cm^−3 min^−1
- VT, average [1, 7]: 0.311 mL cm^−3
- k2, average [1, 7]: 0.229 min⁻¹
- k3, average [1, 7]: 0.035 min⁻¹
- k4, average [1, 7]: 0.010 min⁻¹
- Distribution volume ratio [1, 8]: 0.99 (0.91 – 1)
- VT [1, 8]: 0.29 (0.24 – 0.3) mL/cm^3
- Distribution volume ratio [1, 9]: 0.931 (0.92 – 0.97)
- VT [1, 9]: 0.265 (0.23 – 0.33) mL/cm^3
- Distribution volume ratio [1, 10]: 1.14 (1.1 – 1.2)
- VT [1, 10]: 0.34 (0.3 – 0.39) mL/cm^3
- Distribution volume ratio [1, 11]: 0.996 (0.93 – 1)
- VT [1, 11]: 0.284 (0.23 – 0.35) mL/cm^3
- Distribution volume ratio [1, 12]: 0.844 (0.7 – 0.92)
- VT [1, 12]: 0.25 (0.21 – 0.29) mL/cm^3
- Distribution volume ratio [1, 13]: 1.01 (0.95 – 1.1)
- VT [1, 13]: 0.312 (0.24 – 0.36) mL/cm^3
- Distribution volume ratio [1, 14]: 0.991 (0.98 – 1)
- VT [1, 14]: 0.3 (0.26 – 0.31) mL/cm^3
- time of peak concentration in the brain ([1]; all subjects): around 1 min
- extraction across the blood–brain barrier (first-pass extraction) ([1]; healthy subjects, from K1 of the 2TC model): approximately 1%
- estimated median VT ([1]; striatum (lowest ROI), 2TC model): 0.16 mL cm^−3
- estimated median VT ([1]; thalamus (highest ROI), 2TC model): 0.38 mL cm^−3
- share of activity in a typical ROI that came from blood ([1]; tissue TAC minus whole-blood radioactivity curve): approximately 20%
- intact parent tracer remaining ([2]; 90 min, plasma): 70%
- time of peak concentration in plasma ([2]; arterial plasma after i.v. bolus): about 45 s
- plasma-to-blood ratio ([2]; constant across subjects): about 1.69
- polar radioactive metabolites (three) in plasma ([2]; over the 90 min scanning window): < 10 % of parent compound
- safety of tracer administration ([3]; healthy subjects): safe
- pharmacological effects after injection ([3]; patient reports, blood pressure, pulse, respiration rate, oxygen saturation): no pharmacological effects
- logD [4]: 2.95
- plasma free fraction [5]: approximately 3%
- parent in the brain [6]: 94%
